# Test results: PubChem BioAssay AID2060342 (Molecular Pharmacology Branch, DTP, NCI, 2025)
# Test system: 171881-019-R-J1-PDC multicell spheroid viability
# Test: Anticancer human tumor 171881-019-R-J1-PDC patient-derived invasive breast carcinoma cell line growth inhibition [IpAb]
# Settings: for IC50: curve of first compound; for viability, T/C: stronger effect = lower value
# Method in brief: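 Multi-cell spheroids of 60% tumour cells, 25% HUVEC and 15% MSC in ultra-low-attachment U-bottom wells, treated with agents combined with ipatasertib or abemaciclib. Half-log ranges top out near clinical Cmax, or 10 microM when Cmax is unknown.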
# 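Also: spheroids exposed to the agents for seven days before readout.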
smiles,measurement,setting,value
CC(C)(C)c1cnc(CSc2cnc(NC(=O)C3CCNCC3)s2)o1 + CC(C)NCC(C(=O)N1CCN(c2ncnc3c2C(C)CC3O)CC1)c1ccc(Cl)cc1,IC50,second compound 0.1 µM,187 nM
same,IC50,second compound 0.316 µM,156 nM
same,IC50,second compound 1 µM,< 9.49 nM
same,IC50,second compound 3.16 µM,< 9.49 nM
same,IC50,second compound 10 µM,< 9.49 nM
same,"viability, T/C","second compound 0.1 µM, first compound 0.00949 µM",104%
same,"viability, T/C","second compound 0.1 µM, first compound 0.03 µM",120%
same,"viability, T/C","second compound 0.1 µM, first compound 0.0949 µM",133%
same,"viability, T/C","second compound 0.1 µM, first compound 0.3 µM",2.16%
same,"viability, T/C","second compound 0.1 µM, first compound 0.949 µM",0.19%
same,"viability, T/C","second compound 0.1 µM, first compound 3 µM",0.6%
same,"viability, T/C","second compound 0.316 µM, first compound 0.00949 µM",82.3%
same,"viability, T/C","second compound 0.316 µM, first compound 0.03 µM",91%
same,"viability, T/C","second compound 0.316 µM, first compound 0.0949 µM",89.2%
same,"viability, T/C","second compound 0.316 µM, first compound 0.3 µM",0.99%
same,"viability, T/C","second compound 0.316 µM, first compound 0.949 µM",0.25%
same,"viability, T/C","second compound 0.316 µM, first compound 3 µM",0.63%
same,"viability, T/C","second compound 1 µM, first compound 0.00949 µM",24.9%
same,"viability, T/C","second compound 1 µM, first compound 0.03 µM",34.3%
same,"viability, T/C","second compound 1 µM, first compound 0.0949 µM",38.6%
same,"viability, T/C","second compound 1 µM, first compound 0.3 µM",0.53%
same,"viability, T/C","second compound 1 µM, first compound 0.949 µM",0.49%
same,"viability, T/C","second compound 1 µM, first compound 3 µM",0.25%
same,"viability, T/C","second compound 3.16 µM, first compound 0.00949 µM",11.1%
same,"viability, T/C","second compound 3.16 µM, first compound 0.03 µM",13.2%
same,"viability, T/C","second compound 3.16 µM, first compound 0.0949 µM",19.1%
same,"viability, T/C","second compound 3.16 µM, first compound 0.3 µM",0.68%
same,"viability, T/C","second compound 3.16 µM, first compound 0.949 µM",0.24%
same,"viability, T/C","second compound 3.16 µM, first compound 3 µM",0.28%
same,"viability, T/C","second compound 10 µM, first compound 0.00949 µM",5.77%
same,"viability, T/C","second compound 10 µM, first compound 0.03 µM",6.05%
same,"viability, T/C","second compound 10 µM, first compound 0.0949 µM",9.31%
same,"viability, T/C","second compound 10 µM, first compound 0.3 µM",0.64%
same,"viability, T/C","second compound 10 µM, first compound 0.949 µM",0.26%
same,"viability, T/C","second compound 10 µM, first compound 3 µM",0.31%
